In PMC12111156, “Nitazoxanide Analogs: Synthesis, In Vitro Giardicidal Activity, and Effects on Giardia lamblia Metabolic Gene Expression” (International Journal of Molecular Sciences, 2025):
pIC50: −log10 of the molar value. Read-outs that look alike come from different tables or passages of the source.

Key:
[1] = system: G. lamblia strain ATCC 30957; assay: Viability of Giardia lamblia trophozoite culture (trypan blue count); assay type: cell-based; conditions: for Inhibition of growth of G. lamblia parasite culture: concentration not given
Method: Viability analysis was performed on G. lamblia strain ATCC 30957 grown in TYI-S-33 medium supplemented with 10% fetal bovine serum (FBS) and an antibiotic. Pre-culture was performed in 16 × 150 mm borosilicate tubes with a medium inoculated with 2 × 10^5 trophozoites and incubated at 37 °C for 48 h. For the recovery of the trophozoites, the vial was incubated in ice for 8 min and centrifuged for 6 min at 2000 rpm. The concentrated trophozoites were suspended in 1 mL of phosphate-buffered saline (PBS), and the number of trophozoites was counted by placing a 1:1 volume ratio of cell culture and trypan blue dye (4 g/L); then, a homogeneous drop of the mixture was taken and placed in the Neubauer chamber, and the total cells were counted.
The curves were plotted for concentrations of 0–50 µM of each compound. The assay was performed by placing 1.5 × 10^5 cells in 1.5 mL microcentrifuge tubes with a supplemented medium and different concentrations of each compound (0–50 µM). The negative control was performed under the same conditions without a compound, and the drugs NTZ and MTZ were used as positive controls. The samples were incubated for 48 h at 37 °C. At the end of the incubation, the cell viability count was performed using the trypan blue technique. The viability calculation was performed following the formula nv/(nv + nm), where nv represents the live cells and nm represents the dead cells; the viability value obtained was expressed as a percentage. The IC50 value of each compound was determined using the IC50 Calculator software (https://www.aatbio.com/tools/ic50-calculator).

[2] = system: G. lamblia strain resistant to nitazoxanide; assay: Giardicidal activity in nitazoxanide-resistant strain (trypan blue count); assay type: cell-based; conditions: Giardia duodenalis, 48 h, read-out: IC50 G. lamblia (NTZ Resistant)
Method: A pre-culture at confluence was used as a starting point, and a concentration–response curve was plotted using an initial compound concentration of 25 μM in a final volume of 1.5 mL of TYI-S-33 medium, followed by serial dilutions of the compound. Each treatment was inoculated with 1.5 × 10^5 trophozoites and incubated for 48 h at 37 °C. At the end of the incubation, the number of trophozoites was determined using the trypan blue assay and by counting in a Neubauer chamber. The viability percentage at each compound concentration was calculated using the negative control as a reference.

[3] = Cytotoxicity, XTT viability assay, HT-29; conditions: human, CC50 HT-29, 48 h, XTT
Method: (§1) The cytotoxicity assay was performed to evaluate the effect of the selected compounds on human cells. Colon cells were used because they are cell lines like those present in the microenvironment where G. lamblia colonizes, which is the small intestine of the host. The assay was performed using the human cell lines Caco-2 (ATCC HTB-37) and HT-29 (ATCC […]). Cell viability was determined using the Cell Proliferation Kit II (XTT, St. Louis, MO, EE. UU.). A cell suspension of 2 × 10^3 cells/mL was prepared in Dulbecco’s modified Eagle’s medium (DMEM) supplemented with 10% inactivated fetal bovine serum and an antibiotic (1% penicillin/streptomycin, 5000 U/mL, in a volume of 100 µL). The suspension was added to a 96-well plate. The plates were incubated for 24 h at 37 °C in a 5% CO2 atmosphere. […] The cells were incubated for 48 h at 37 °C in a 5% CO2 atmosphere. Cell viability was determined using the following steps. The medium in each well was replaced with 100 µL of fresh medium, and 50 µL of XTT labeling mix was added per well. The reaction was incubated for four hours at 37 °C and 5% CO2. After incubation, the absorbance of the samples on the plate was measured at 450 nm. Each compound was assayed in triplicate in three independent experiments. CC50 values (μM) were determined using the nonlinear regression function of GraphPad Prism version 8 for Windows.

[4] = system: HT-29 cells; assay: Cytotoxicity, XTT viability assay, HT-29; conditions: for Selectivity index (CC50/IC50) HT-29: CC50 HT-29 / IC50 trophozoite ATCC strain 30957
Method: as §1

[5] = Cytotoxicity, XTT viability assay, Caco-2; conditions: human
Method: as §1

[6] = system: Caco-2 and HT-29 cells; assay: Cytotoxicity, XTT viability assay, stated for both cell lines; assay type: cell-based, human; conditions: 125 µM, 48 h
Method: The suspension was added to a 96-well plate. […] Cell viability was determined using the following steps.

[7] = system: Giardia lamblia trophozoites (strain ATCC 30957) gene expression; assay: Gene expression in trophozoites by RT-qPCR; assay type: cell-based; conditions: IC50 of each compound, 48 h
Method: To determine the alterations in the parasite’s metabolism and cellular processes induced by the compounds, the expression levels of various genes encoding metabolic, structural, and oxidative stress response proteins were evaluated. G. lamblia strain ATCC 30957 was grown by following previously established culture parameters.
The culture tube was incubated on ice for 15 min and then centrifuged at 2000 rpm for 6 min to concentrate the cell pellet. Cell counting was performed using the trypan blue method. A 500 µL volume of Trizol ® was added, and it was gently homogenized; then, 60 µL of chloroform was added, and it was homogenized for 10 s with a vortex and incubated on ice for 3 min. Afterward, it was centrifuged at 12,000 rpm for 10 min, the aqueous phase was transferred to a new tube, 200 µL of isopropanol was added, and it was incubated for 3 h on ice. The sample was then centrifuged for 10 min at 12,000 rpm, and the supernatant was discarded. A 600 µL volume of ethanol (70%) was added, homogenized, and centrifuged. In the end, the supernatant was removed, and the sample was centrifuged again to dry the excess alcohol. The pellet was dried. Finally, it was resuspended in 25 µL of sterile MilliQ water. The concentration and purity of the extracted RNA were determined using the NanoDrop® Spectrophotometer ND-1000 (NanoDrop Technologies, Wilmington, DE, USA). […] RNA purity and integrity were confirmed using 0.8% (w/v) agarose gels under denaturing conditions.
The synthesis of cDNA was carried out with […] of purified RNA, and 1 U of […] was added (Thermo Thermo Fisher Scientific, Waltham, MA, USA). First-strand cDNA synthesis was carried out using 1 μg of DNase-treated RNA, combined with a 10 mM dNTP mix, oligo(dT)18 primer, and RevertAid reverse transcriptase (Thermo Scientific) in a final reaction volume of 20 μL. The reaction mixture was incubated at 42 °C for 60 min, followed by heat inactivation at 70 °C for 10 min. The synthesized cDNA was stored at −20 °C until further use. The level of purity and concentration of the cDNA were determined using the NanoDrop® Spectrophotometer ND-1000 (NanoDrop Technologies, Wilmington, DE, USA).
Specific oligonucleotides were designed to determine the expression levels of the gene’s phosphofructokinase, pyruvate kinase, glucose-6-phosphate dehydrogenase::6-phosphogluconolactonase, 6-phosphogluconate dehydrogenase, and transketolase. The design was based on gene sequences available in the National Center for Biotechnology Information (NCBI) database, adhering to the following criteria: an oligonucleotide length of 18–20 bp, a melting temperature (Tm) of 61 °C, a GC content of approximately 40%, and an amplicon size between 80 and 200 bp (Table 4). The oligonucleotides were synthesized by the Sequencing and Synthesis Unit of the Institute of Biotechnology, UNAM.
Additionally, previously reported primers that were used for the gene expression analysis of G. lamblia were also obtained (Table 4). These primers target genes encoding surface structural protein, giardin, actin, pyruvate:ferredoxin oxidoreductase, pyruvate phosphate dikinase, NADH oxidase, triose phosphate isomerase, glyceraldehyde-3-phosphate dehydrogenase, and Aldolase.
Amplification was performed using a StepOne™ Real-Time PCR System and the Fast SYBR® Green Master Mix kit (Applied Biosystems, Foster City, CA, USA) under the following conditions: an initial denaturation at 95 °C for 30 s, followed by 40 cycles of 95 °C for 3 s and 60 °C for 30 s. The melt curve analysis was conducted post-amplification by gradually increasing the temperature from 60 °C to 95 °C. […] Normalization was performed using the geometric mean of cycle threshold (Ct) values, and the relative expression levels of the target genes were calculated using the 2^−ΔΔCt method. Each reaction was performed in five replicates for all analyzed genes and strains. Results are presented as mean values ± standard deviation (SD).

[8] = system: G6PD::6PGL enzyme of G. lamblia; conditions: cited from earlier work
[9] = system: HT-29 cells; parameters: method as in PMID 38893461; conditions: cited from earlier work
[10] = system: Caco-2 cells; parameters: method as in PMID 38893461; conditions: cited from earlier work
[11] = system: Giardia lamblia (giardiasis); parameters: method as in PMID 11432808, PMID 34378955, PMID 32122530, PMID 37511272; conditions: cited from earlier work
[12] = Giardia duodenalis, ATCC30957, 48 h, trophozoites ATCC 30957, 48 h, 37 °C, read-out: IC50 G. lamblia
[13] = trophozoites ATCC 30957, 48 h, 37 °C, read-out: IC50 G. lamblia
[14] = ratio of IC50 values, ATCC strain

SMILES	Inhibition of growth of G. lamblia parasite culture [1]	pIC50 [2]	CC50 at 48 h [3]	Selectivity index (CC50/IC50) HT-29 [4]	CC50 at 48 h ([5]; Caco-2)	selectivity ratio at 48 h ([5]; Caco-2)	Decrease of cell viability [6]	G6PD::6PGL gene expression vs control [7]	GIA (giardin) gene expression, increase vs control [7]	NADHox gene expression, increase vs control [7]	PFK gene expression vs control [7]	PFOR gene expression vs control [7]	PPDK gene expression vs control [7]	TKT gene expression, increase vs control [7]	Inhibition of the G6PD::6PGL enzyme (in words) [8]	pIC50 [1, 12]	pIC50 [1, 13]	TKT gene expression, decrease vs control [7]	CC50 [9]	CC50 [10]	other results
O=C(Nc1ccc([N+](=O)[O-])cc1)Nc1ncc([N+](=O)[O-])s1 [CNZ-7]	more than 98%	5.60	529 µM	100	640 µM	121	up to 20%	11.4 fold change	2.6 times	1.7 times	reduction	7.4 fold change	15.8 fold change	1.9 times	inhibitors of the G6PD enzyme						ACT (actin) gene expression, increase vs control [7]: 2.1 times
CCCCOc1ccc(NC(=O)Nc2ncc([N+](=O)[O-])s2)cc1 [CNZ-8]	more than 98%	4.86		56		57	up to 20%	19.4 fold change	12.5 times	4.2 times	reduction		8.2 fold change		inhibitors of the G6PD enzyme	> 4.82	4.95	1.4 times			CC50 at 48 h ([3]; HT-29 cells): 622 µM; CC50 at 48 h ([5]; Caco-2, CC50 Caco-2, 48 h, XTT): 633 µM
O=C(Nc1ncc([N+](=O)[O-])s1)c1cccc([N+](=O)[O-])c1 [FLP-8, 3-Nitro-N-(5-nitro-1,3-thiazol-2-yl)benzamide]	more than 98%	5.92	43.6 µM	436	46 µM	460	≤ 50%		did not show changes in expression	1.7 times	2.7 fold change				not inhibitors of the enzyme			1.7 times			Decrease of parasite viability ([1]; 25 µM): 100%; Relative potency compared with MTZ [1, 14]: 34 times; Relative potency compared with NTZ [1, 14]: 43 times; CC50 ([4]; read-out: CC50 HT-29, 48 h, XTT): 43.7 µM; VSP gene expression, increase vs control [7]: 2.4 times
Cc1ncc([N+](=O)[O-])n1CCO [MTZ, metronidazole, reference compound]				161		160										5.37	5.47		550 µM	545 µM	
CC(=O)Oc1ccccc1C(=O)Nc1ncc([N+](=O)[O-])s1 [NTZ, nitazoxanide]		5.14		147		134		48.3 fold change	did not show changes in expression	lower	reduction	14 fold change		36.1 times					634 µM	580 µM	pIC50 ([1]; Giardia duodenalis, ATCC30957, 48 h, read-out: IC50 G. lamblia, trophozoites ATCC 30957, 48 h, 37 °C): 5.47; pIC50 ([1]; read-out: IC50 G. lamblia, trophozoites ATCC 30957, 48 h, 37 °C): 5.37; 6PGDH gene expression vs control [7]: differential overexpression; GAPDH gene expression vs control [7]: 17.2 fold change; Inhibition of GlG6PD::6PGL (in words) [8]: catalytic inhibitor; Efficacy in treatment of giardiasis [11]: 71%
